Results on 13 compounds are retold here after patent publication US8889676B2, “3-ureidoisoquinolin-8-yl derivatives” (Actelion Pharmaceuticals Ltd., priority 2011, dated 2014).

Molecules are shown by their SMILES. In brackets after ≈: the same amount, converted by molar mass.

In the experiment the test system is S. pneumoniae ATCC 49619. Kind of experiment: Minimal inhibitory concentration (MIC) by broth microdilution (CLSI M7-A7). Format: cell-based, Streptococcus pneumoniae. To be noted: Streptococcus pneumoniae, ATCC49619; cation-adjusted Mueller Hinton Broth supplemented with 3% (v/v) lysed horse blood; microdilution method. The method, boiled down: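 Broth microdilution per CLSI M7-A7 in cation-adjusted Mueller-Hinton broth with 3% (v/v) lysed horse blood for S. pneumoniae. MIC in mg/l.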
In the case of `CCNC(=O)Nc1cc2c(-c3ccncc3C)ccc(CNC(=O)OC)c2cn1.Cl` [Example 185, [3-(3-ethyl-ureido)-5-(3-methyl-pyridin-4-yl)-isoquinolin-8-ylmethyl]-carbamic acid methyl ester hydrochloride], the MIC was found to be 2 µg/mL.
Regarding `CCNC(=O)Nc1cc2c(-c3cc(F)ncc3C)ccc(CNC(=O)OC)c2cn1.Cl` [Example 186, [3-(3-ethyl-ureido)-5-(2-fluoro-5-methyl-pyridin-4-yl)-isoquinolin-8-ylmethyl]-carbamic acid methyl ester hydrochloride], the lowest concentration to inhibit growth (MIC) was 2 µg/mL.
The same measure for `CCNC(=O)Nc1cc2c(-c3ccnc(F)c3C)ccc(CNC(=O)OC)c2cn1.Cl` [Example 187, [3-(3-ethyl-ureido)-5-(2-fluoro-3-methyl-pyridin-4-yl)-isoquinolin-8-ylmethyl]-carbamic acid methyl ester hydrochloride]: 4 µg/mL.
Regarding `CCNC(=O)Nc1cc2c(-c3cc(C)ncc3F)ccc(CNC(=O)OC)c2cn1.Cl` [Example 188, [3-(3-ethyl-ureido)-5-(5-fluoro-2-methyl-pyridin-4-yl)-isoquinolin-8-ylmethyl]-carbamic acid methyl ester hydrochloride], the MIC worked out at 2 µg/mL.
Compound `CCNC(=O)Nc1cc2c(-c3ccnc(C)c3C)ccc(CNC(=O)OC)c2cn1.Cl` [Example 189, [5-(2,3-dimethyl-pyridin-4-yl)-3-(3-ethyl-ureido)-isoquinolin-8-ylmethyl]-carbamic acid methyl ester hydrochloride] showed an MIC of 8 µg/mL.
The figure for `CCNC(=O)Nc1cc2c(-c3cc(C)ncc3C)ccc(CNC(=O)OC)c2cn1.Cl` [Example 190, [5-(2,5-dimethyl-pyridin-4-yl)-3-(3-ethyl-ureido)-isoquinolin-8-ylmethyl]-carbamic acid methyl ester hydrochloride] is 4 µg/mL; for `CCNC(=O)Nc1cc2c(-c3cc(F)ncc3F)ccc(CNC(=O)OC)c2cn1.Cl` [Example 191, [5-(2,5-difluoro-pyridin-4-yl)-3-(3-ethyl-ureido)-isoquinolin-8-ylmethyl]-carbamic acid methyl ester hydrochloride] it is 2 µg/mL.
The same measure for `CCNC(=O)Nc1cc2c(-c3ccnc(CCCO)c3)ccc(CNC(=O)OC)c2cn1` [Example 192, {3-(3-ethyl-ureido)-5-[2-(3-hydroxy-propyl)-pyridin-4-yl]-isoquinolin-8-ylmethyl}-carbamic acid methyl ester]: 2 µg/mL (≈ 4.57 µM); for `CCNC(=O)Nc1cc2c(-c3ccnc(CC(=O)NC)c3)ccc(CNC(=O)OC)c2cn1` [Example 193, [3-(3-ethyl-ureido)-5-(2-(methylcarbamoyl-methyl)-pyridin-4-yl)-isoquinolin-8-ylmethyl]-carbamic acid methyl ester]: 8 µg/mL (≈ 17.8 µM).
For the compound `CCNC(=O)Nc1cc2c(-c3ccnc(CC(=O)N(C)C)c3)ccc(CNC(=O)OC)c2cn1` [Example 194, [5-[2-(dimethylcarbamoyl-methyl)-pyridin-4-yl]-3-(3-ethyl-ureido)-isoquinolin-8-ylmethyl]-carbamic acid methyl ester], the MIC was 4 µg/mL (≈ 8.61 µM). Against the preceding compound, the MIC is about 2-fold lower.
The figure for `CCNC(=O)Nc1cc2c(-c3ccnc(CCC(=O)NC)c3)ccc(CNC(=O)OC)c2cn1` [Example 195, {3-(3-ethyl-ureido)-5-[2-(2-methylcarbamoyl-ethyl)-pyridin-4-yl]-isoquinolin-8-ylmethyl}-carbamic acid methyl ester] is 4 µg/mL (≈ 8.61 µM); for `CCNC(=O)Nc1cc2c(-c3ccnc(CCC(=O)N(C)C)c3)ccc(CNC(=O)OC)c2cn1` [Example 196, [5-[2-(2-dimethylcarbamoyl-ethyl)-pyridin-4-yl]-3-(3-ethyl-ureido)-isoquinolin-8-ylmethyl]-carbamic acid methyl ester] it is 4 µg/mL (≈ 8.36 µM).
The same measure for `CCNC(=O)Nc1cc2c(-c3ccnc(C#N)c3)ccc(CNC(=O)OC)c2cn1` [Example 197, [5-(2-cyano-pyridin-4-yl)-3-(3-ethyl-ureido)-isoquinolin-8-ylmethyl]-carbamic acid methyl ester]: 2 µg/mL (≈ 4.95 µM).

As usually defined, the MIC is the smallest concentration in the dilution series that meets the test's criterion for growth inhibition. A lower MIC goes with inhibition by little substance.
